This note sets out measurements from patent US20040102454A1, “Phenylahistin and the phenylahistin analogs, a new class of anti-tumor compounds” (priority 1998, published 2004).

pIC50: −log10 of the molar value. Converted amounts (≈) assume the structure as drawn. Structures can show the parent of a compound that is named as a salt. Where two headings read alike, the source gives them in different places.

One may read the MFC as the lowest tested concentration that kills the fungus rather than only halting it. In general, MIC refers to the smallest concentration in the dilution series that meets the test's criterion for growth inhibition.

Experiment [1] deals with HT-29 human colon tumor. Briefly: HT-29 Human Colon Tumor Xenograft Model. In kind it is in vivo, nude mice. As to conditions: CPT-11 100 ip qwx3 alone; study 2139. As to the method:
Animals used were (exceptions are indicated for individual studies): female nude mice (nu/nu) between 5 and 6 weeks of age (˜20 g, Harlan); group size was 9-10 mice per group unless otherwise indicated. The selected novel compound was administered as monotherapy via the intraperitoneal (i.p.) route at the doses indicated for the individual study; for the combination studies the selected reference chemotherapy agents were injected 15-30 min prior to the compound. Vehicles used in these studies were: 12.5% DMSO, 5% Cremaphor and 82.5% peanut oil for the selected novel compounds; (1:3) Polysorbate 80:13% ethanol for taxotere; […] Saline dilutions are used to achieve the injection concentrations used for the reference compounds. Animals were implanted subcutaneously (s.c.) by trocar with fragments of HT-29 tumors harvested from s.c. growing tumors in nude mice hosts. […] CPT-11 was administered intraperitoneally on days 1, 8 and 15 (qw×3).
On the technique in general: A xenograft is tissue or cells of one species grown in another, often human tumour cells in immunodeficient mice.

The test system of experiment [2] is P388 cells. The experiment is described as follows: P388 proliferation, Alamar Blue assay. It is filed as cell-based, murine. On the procedure: For this example, the Alamar Blue™ assay was performed as follows. Exponentially growing P388 cells were seeded into 96-well tissue culture plates (5×10^3 cells/100 μl/well) and cultured in RPMI 1640 medium supplemented with 10% fetal bovine serum for 16 h. Compounds (DMSO solution) were then added to each well at various concentrations, and the cells were cultured for an additional 48 h. Living cells were counted using Alamar Blue™ (BioSource International, Camarillo, Calif.), according to the method of Ahmed, S. A. et al., J. Immunol. Methods, 170, 211 (1994).
For orientation: Alamar Blue is a resazurin reagent that responds to reducing activity.

Experiment [3] has as its system Microtubule protein from bovine brain. Briefly: Microtubule protein polymerization assay (turbidity). It is filed as biochemical. On the procedure:
Microtubule protein was prepared from bovine brain tissue by two cycles of assembly and disassembly according to the method of Tiwari, S. C. et al. Anal. Biochem, (1993), 215, 96-103. Tubulin was purified from microtubule protein by phosphocellulose chromatography see Algaier, J. et al. Biochim. Biophys. Acta, (1988), 954, 235-43, and tubulin purity was evaluated by polyacrylamide gel electrophoresis, as in Laemmli, U.K., Nature, (1970), […], 680-85. […] Protein concentrations were determined using the Coomassie® Protein Assay Reagent from Pierce (Rockford, Ill.).
Polymerization of microtubule protein was monitored by an increase in turbidity at 37° C. in microtubule assembly buffer containing 100 mM MES, 0.5 mM MgCl2, 1 mM EGTA and 1 mM GTP. See Johnson, K. A. et al., J. Mol. Biol., (1977), 117, 1-31. Polymerization of purified tubulin was measured using the same method except the microtubule assembly buffer contained 4 M glycerol. See Lee, J. C. et al., Biochemistry, (1975), 14, 5183-87. Microtubule protein and tubulin polymerization was initiated by a temperature shift from 0° C. to 37° C. and turbidity was measured on a DU-20 thermocontrolled spectrophotometer from Beckman (Fullerton, Calif.) at 360 nm. Drugs were dissolved in dimethyl sulfoxide (DMSO), which was used in all experiments at a final concentration of 2% (v/v).
For this example, the microtubule protein polymerization assay was performed as follows. Microtubule protein was prepared from bovine brain tissue by two cycles of assembly and disassembly. Polymerization of microtubule protein was monitored by an increase in turbidity at 37° C. in microtubule assembly buffer containing 100 mM MES, 0.5 mM MgCl2, 1 mM EGTA and 1 mM GTP. The polymerization of microtubule protein was initiated by a temperature shift from 0° C. to 37° C. Turbidity was measured on a thermo-controlled spectrophotometer (Beckman DU-20, Fullerton, Calif.) at 360 nm. Compounds were dissolved in DMSO, which was used in all experiments at a final concentration of 2% (v/v).

Experiment [4] deals with C. glabrata. Briefly: Antifungal susceptibility testing, broth dilution (NCCLS M38-A). It is filed as cell-based, Candida glabrata. As to the method:
(§1) Antifungal susceptibility testing was accomplished according to the methods outlined in the National Committee for Clinical Laboratory Standards, M38-A “Reference Method for Broth Dilution Antifungal Susceptibility Testing of Conidium-Forming Filamentous Fungi; Approved Standard.” This includes testing in RPMI-1640 with glutamine and without bicarbonate, an inoculum size of 0.4-5×10^4, and incubation at 30 or 35° C. for 48 hours. […] Drug concentrations were 0.03-16 μg/ml for the investigational compounds, 0.015-8 μg/ml for itraconazole and griseofulvin.
(§2) The minimum lethal concentration (MLC) was determined by plating […] from the MIC concentration and each concentration above the MIC. […] When a MIC was obtained, a minimum fungicidal concentration (MFC) was determined to assess the fungistatic/fungicidal nature of the compound. […] The compound is scored as fungistatic if the cells are able to resume growth and fungicidal if no regrowth is possible because the compound had killed the organisms.
A general note: Broth dilution looks for growth in wells or tubes with falling amounts of substance.

Experiment [5] relates to C. albicans 10231. The experiment is described as above. It is filed as cell-based, Candida albicans. As to the method:
as §1, §2

For experiment [6], the system named is C. albicans 90028. The experiment is described as above. In kind it is cell-based, Candida albicans. As to the method: as §1, §2
For experiment [7], the system named is microtubules in A549 cells. The experiment is described as follows: Immunofluorescence staining of microtubules. In kind it is cell-based, human. The following applies: 6 hours incubation. On the procedure: Immunocytochemical staining was performed using the method described by Yahara, I. et al., Cell (1978) 15, 251-259. A549 cells were cultured on glass coverslips and incubated with the test drug for 6 hours. The cells were then fixed with 3.7% formaldehyde for 30 min, permeabilized with 0.2% Triton X-100 for 5 min, and incubated with a mouse monoclonal antibody against α-tubulin (Calbiochem®, Oncogene Research Products, Cambridge, Mass.), followed by incubation with fluorescein isothiocyanate-conjugated goat anti-mouse IgG from Cosmo Bio Co., (Tokyo, Japan), and the cells were examined under an immunofluorescent microscope.

Experiment [8] has as its system MES-SA DX (Taxol Resistant) human uterine sarcoma tumor cell line. The experiment is described as follows: Drug resistant cell line pair, cytotoxicity. It is filed as cell-based. An excerpt:
MES-SA (Taxol Sensitive) and MES-SA DX (Taxol Resistant). This cell line expresses elevated mdr-1 mRNA and P-glycoprotein (an extrusion pump mechanism). Pretreatment with cyclosporin-A (CsA) blocks P-glycoprotein and reinstates activity in the resistant cell line for those compounds for which the resistance is due to elevated P-glycoprotein.

Where [9] appears, read: microtubule protein 1.5 mg/ml (Table 4), read-out: IC50 for Microtubule Protein Polymerization.
Setting [10] is: Mus musculus, P388, means (±SEM) of three experiments (Table 9), read-out: IC50 P388 proliferation.
[11] abbreviates: microtubule protein 1.5 mg/mL (Table 9), read-out: IC50 Microtubule Protein polymerization.
Where [12] appears, read: means (±SEM) of three experiments (Table 9), read-out: IC50 P388 proliferation.
Setting [13] is: Alamar Blue assay (Table 4), read-out: IC50 for P388 Proliferation.

As to `CCc1c2c(nc3ccc(OC(=O)N4CCC(N5CCCCC5)CC4)cc13)-c1cc3c(c(=O)n1C2)COC(=O)[C@]3(O)CC` [CPT-11, irinotecan hydrochloride, reference compound], in experiment [1], the “Chemotherapeutic Agent Result TGI %” value came out at 32.7%.
On to `O=C1CNC(=O)C(Cc2ccccc2)N1` [Compound 7, Cyclo-[glycinyl-L-phenylalanine]], for which the pIC50 in experiment [2] (Mus musculus, P388, Alamar Blue assay (Table 4), read-out: IC50 for P388 Proliferation) was < 3.70; in experiment [3] (setting [9]) it was < 3.70.
Turning to `C=CC(C)(C)c1c(/C=C2\NC(=O)[C@H](Cc3ccccc3)NC2=O)ncn1C` [Compound 14, (−)-Cyclo-[(N^im-methyl-5-(1,-dimethyl-2-propenyl))dehydrohistidinyl-L-phenylalanine]], the pIC50 in experiment [2] (setting [10]) is 6.02; in experiment [3] (setting [11]) it was 4.00. In experiment [3], the “times less active than (−)-phenylahistin” value is “about 5 times”.
On to `C=CC(C)(C)c1c(C=C2C(=O)N(C)[C@@H](Cc3ccccc3)C(=O)N2C)ncn1C` [Compound 15, (−)-Cyclo-N, N′-dimethyl-[(N^im-methyl-5-(1,1-dimethyl-2-propenyl))dehydro-histidinyl-L-phenylalanine]], for which the pIC50 in experiment [2] (setting [12]) was 3.80; in experiment [3] (setting [11]) it was < 3.70.
As to `O=C1NC(Cc2ccccc2)C(=O)NC1=Cc1c[nH]cn1` [Compound 19, Cyclo-[dehydrohistidinyl-L-phenylalanine]], the pIC50 in experiment [2] (setting [10]) and in experiment [3] (setting [11]) was < 3.70 each time. In addition, the “inhibition percentage at 200 μM, microtubule protein polymerization” value (“inhibition percentage at 200 μM” for short) in experiment [3] came to 11%.
On to `Cc1[nH]cnc1C=C1NC(=O)[C@H](Cc2ccccc2)NC1=O` [Compound 20, Cyclo-[(5-methyl)dehydrohistidinyl-L-phenylalanine]], for which the values for the pIC50 in experiment [2] (setting [12]) and in experiment [3] (setting [11]) were 4.82 and < 3.70, respectively. In addition, the “inhibition percentage at 200 μM” value in experiment [3] came out at 9%.
For the compound `O=C1N[C@@H](Cc2cnc[nH]2)C(=O)N[C@H]1Cc1ccccc1` [Cyclo-His-Phe, reference compound], the pIC50 in experiment [2] (setting [13]), in experiment [2] (setting [12]), in experiment [3] (setting [11]) and in experiment [3] (setting [9]) was < 3.70 throughout.
Turning to `C[C@@H]1[C@H](O)[C@@H](C)/C=C/C=C/C=C/C=C/C=C/C=C/C=C/[C@H](O[C@@H]2O[C@H](C)[C@@H](O)[C@H](N)[C@@H]2O)C[C@@H]2O[C@](O)(C[C@@H](O)C[C@@H](O)[C@H](O)CC[C@@H](O)C[C@@H](O)CC(=O)O[C@H]1C)C[C@H](O)[C@H]2C(=O)O` [amphotericin B], the MFC in experiment [4] (C. glabrata) stood at 1 µg/mL (≈ 1.08 µM); in experiment [5] (C. albicans 10231), 0.5 µg/mL (≈ 0.541 µM); in experiment [6] (C. albicans 90028) it was 0.5 µg/mL (≈ 0.541 µM). Also, the MIC in experiment [4] (C. glabrata, 80% reduction in turbidity) worked out at 1 µg/mL (≈ 1.08 µM); in experiment [5] (C. albicans 10231, 80% reduction in turbidity), 0.5 µg/mL (≈ 0.541 µM); in experiment [6] (C. albicans 90028, 80% reduction in turbidity), 0.5 µg/mL (≈ 0.541 µM).
Take `CCCCNC(=O)n1c(NC(=O)OC)nc2ccccc21` [benomyl]: the MIC in experiment [4] (Nakaseomyces glabratus, C. glabrata, 80% reduction in turbidity, read-out: MIC) was 64 µg/mL (≈ 220 µM); in experiment [5] (Candida albicans, C. albicans 10231, 80% reduction in turbidity, read-out: MIC), 64 µg/mL (≈ 220 µM); in experiment [6] (Candida albicans, C. albicans 90028, 80% reduction in turbidity, read-out: MIC), 64 µg/mL (≈ 220 µM). In addition, the MFC in experiment [4] (Nakaseomyces glabratus, C. glabrata, read-out: MFC) is > 512 µg/mL; in experiment [5] (Candida albicans, C. albicans 10231, read-out: MFC), > 512 µg/mL; in experiment [6] (Candida albicans, C. albicans 90028, read-out: MFC), > 512 µg/mL.
With `COc1cc2c(c(OC)c1OC)-c1ccc(OC)c(=O)cc1[C@@H](NC(C)=O)CC2` [colchicine], the “microtubule structure (anti α-tubulin staining)” value in experiment [7] is given as “staining profile similar to that of (−)-PLH-treated cells”. Also, the MIC was > 128 µg/mL in experiment [4] (Nakaseomyces glabratus); > 128 µg/mL in experiment [5] (Candida albicans, 10231); > 128 µg/mL in experiment [6] (Candida albicans, 90028).
Consider `COc1cccc2c1C(=O)c1c(O)c3c(c(O)c1C2=O)C[C@@](O)(C(=O)CO)C[C@@H]3O[C@H]1C[C@H](N)[C@H](O)[C@H](C)O1` [doxorubicin, reference compound], for which the “reduced susceptibility of the MES-SA DX cell line” value in experiment [8] was determined as 34 fold.
With `COc1cc([C@@H]2c3cc4c(cc3[C@@H](O[C@@H]3O[C@@H]5CO[C@@H](C)O[C@H]5[C@H](O)[C@H]3O)[C@H]3COC(=O)[C@H]23)OCO4)cc(OC)c1O` [etoposide, reference compound], in experiment [8], the “reduced susceptibility of the MES-SA DX cell line” value worked out at 60 fold.
Regarding “(+)-Cyclo-[5-(1,1-dimethylpropyl)dehydrohistidinyl-L-phenylalanine] [Compound 4]”, the pIC50 was 4.72 in experiment [2] (setting [13]), 4.72 in experiment [2] (setting [12]), < 3.70 in experiment [3] (setting [11]) and < 3.70 in experiment [3] (setting [9]). In experiment [3], the “inhibition percentage at 200 μM” value was found to be 12%.
In the case of “(+)-Cyclo-[5-(1,1-dimethylpropyl)histidinyl-L-phenylalanine] [Compound 6]”, the pIC50 in experiment [2] (setting [13]), in experiment [2] (setting [12]), in experiment [3] (setting [11]) and in experiment [3] (setting [9]) was < 3.70 throughout.
Consider “(−)-Cyclo-[5-(1,1-dimethylpropyl)dehydrohistidinyl-L-phenylalanine] [Compound 3]”, for which the pIC50 in experiment [2] (setting [13]) was 6.64; in experiment [2] (setting [12]) it was 6.64; in experiment [3] (setting [11]), 4.52; in experiment [3] (setting [9]), 4.52.
Turning to “(−)-Cyclo-[5-(1,1-dimethylpropyl)histidinyl-L-phenylalanine] [Compound 5]”, the pIC50 in experiment [2] (setting [13]), in experiment [2] (setting [12]), in experiment [3] (setting [11]) and in experiment [3] (setting [9]) was < 3.70 throughout.
